Measurements: publication PMC3751085, “A simple methodology to assess endolysosomal protease activity involved in antigen processing in human primary cells” (BMC Cell Biology, 2013)
Like-named read-outs stand apart in the source and are kept apart here.

How the values were obtained:
[1] = not given; remark: listed apart in the source
[2] = human, cells or culture medium
Text: The percentage of acid phosphatase activity in each fraction was used to determine the number of cells that yielded endolysosomes in each fraction. […] The disappearance of the peptide was monitored by RP-HPLC, where the amount of peptide is proportional to the surface area under its peak. Upon degradation the peak area reduced and additional peaks corresponding to degradation products appeared [15].
(§1) We performed a degradation assay as mentioned in Figure 1 and analyzed the peptide fragments produced by mass spectrometry. We compared the degradation of a longer HIV peptide relevant to antigen processing and peptide-based immunogens with crude lysate and purified endolysosomes at pH 5.5 (late endosomal pH) and 4.0 (lysosomal pH) [26]. […] The products of the degradation after a 60-minute incubation with either crude lysate or purified endolysosomes at pH 4.0 and 5.5 were identified by mass spectrometry. […] We compared by mass spectrometry the identity and corresponding peak sirface intensities of all peptides produced in purified endolysosomes and in crude lysate at pH 4 and 5.5 (Additional file 3: Figure S3A).
(§2) Endolysosomes were purified from crude PBMC lysate by differential centrifugation. PBMCs were isolated from human buffy coats using Ficoll centrifugation [29]. Cells resuspended in extraction buffer at a concentration of 5 × 10^8 cells/ml [30] were lysed using glass beads as in a previous study done in our laboratory [31]. The cell lysate was centrifuged at 1000g for 10 min at 4°C. The supernatant was transferred to a new tube and centrifuged at 20,000 g for 20 min at 4°C. The resulting pellet consists of endoplasmic reticulum, mitochondria and endolysosomes. The supernatant corresponds to purified cytosolic fraction. […] 120 μl fractions were collected and further analyzed for endolysosomal enrichment.
The assay is adapted from previously published studies from our laboratory [31]. […] Another 50 μl of the degradation buffer was added to each sample and the amount of peptide remaining was analyzed by RP-HPLC.

in vitro = details: human, cells or culture medium, pH 4
Experimental: These degradation assays were performed in the presence of cathepsin inhibitors to identify specific cathepsins that played a role in antigen processing. […] The products of peptide degradation after 0, 10, 30 and 60 minutes of the reaction were analyzed by RP-HPLC and the percentage of remaining original peptide was quantified from the area under peak (Figure 3A). To rule out any effect of acidic pH on the peptides, the peptide was incubated for the same amount of time with the reaction buffer without any crude lysate and the peptide was quantified by RP-HPLC (Figure 3B). As mentioned in Figure 1D, a half-life of the peptide in the presence or absence of cathepsin can be calculated. […] Therefore, on fitting a one-phase exponential decay curve, we calculated the stability rate of the peptide at each pH (Figure 3C). […] The stability rate of the peptide without inhibitor was assigned a value of one and the fold change in the stability rate in the presence of inhibitors was calculated. […] The experiment was repeated using PBMC lysate from three different healthy donors and the average of three results are shown in Figure 3C.
as §1
8 nM of peptide was incubated with 30 μg of crude PBMC lysate in 250 μl of degradation buffer (20 mM HEPES, 1 mM magnesium chloride, 137 mM potassium acetate, 1 mM ATP) that was adjusted to the appropriate pH. In studies involving purified endolysosome, an acid phosphatase assay was performed on the fractions and the amount of acid phosphatase activity was used to calculate the total number of cells from which each fraction was derived. Using this approach, equivalent amount of cytosol and endolysosome that were derived from the same number of cells were used in peptide degradation assays. […] When using inhibitors, the compound was added to the crude lysate before addition of the peptide and incubated at room temperature for 30 minutes. […] Another 50 μl of the degradation buffer was added to each sample and the amount of peptide remaining was analyzed by RP-HPLC. […]

[3] = Peptide degradation assay in purified cytosol from PBMC; format: in vitro ADME; details: human, s9, amount equivalent to endolysosomes (same number of cells), 8 nM peptide in degradation buffer (20 mM HEPES, 1 mM MgCl2, 137 mM K acetate, 1 mM ATP), 37°C, % original peptide remaining by RP-HPLC, representative of two replicates
Text: The percentage of acid phosphatase activity in each fraction was used to determine the number of cells that yielded endolysosomes in each fraction. […] The disappearance of the peptide was monitored by RP-HPLC, where the amount of peptide is proportional to the surface area under its peak.
as §2
In studies involving purified endolysosome, an acid phosphatase assay was performed on the fractions and the amount of acid phosphatase activity was used to calculate the total number of cells from which each fraction was derived. […] Another 50 μl of the degradation buffer was added to each sample and the amount of peptide remaining was analyzed by RP-HPLC.

Molecule	number of peptide fragments identified after degradation in endolysosomes (pH 4) [peptides]	fragments of the crude lysate degradation similar to those produced in endolysosomes, pH 4.0 ([1]; pH 4) [%]	number of peptide fragments identified after degradation in crude lysate ([1]; pH 4) [peptides]	fragments of the crude lysate degradation similar to the endolysosomal fraction, pH 5.5 ([1]; pH 5.5) [%]	half-life of the peptide in endolysosomes at pH 4.0 (purified endolysosomes, pH 4.0, 37°C, RP-HPLC, data not shown) [min]	half-life [2] [min]	half-life (in vitro) [min]	half-life at 8 nM [3] [min]
KVVEEKAFSPEVIPMFAAL [5-KF11-3]	39	84.75	32	76.2	–	–	–	–
CC[C@H](C)[C@H](NC(=O)[C@@H](NC(=O)[C@H](CCC(=O)O)NC(=O)[C@@H]1CCCN1C(=O)[C@H](CO)NC(=O)[C@H](Cc1ccccc1)NC(=O)[C@H](C)NC(=O)[C@@H](N)CCCCN)C(C)C)C(=O)N1CCC[C@H]1C(=O)N[C@@H](CCSC)C(=O)N[C@@H](Cc1ccccc1)C(=O)O [B57KF11]	–	–	–	–	8	8	6	36
